According to patent US20180118718A1, “Substituted Quinoxaline Derivatives” (Selvita S.A., priority 2015, published 2018):

Biological target: T1, Human recombinant His-tagged PFKFB3 (Homo sapiens, UniProt Q16875)
T1 construct: His; made in house
Test: PFKFB3 IC50 Determination Assay (in vitro kinase assay, modified ADP-Glo system)
Format: biochemical
Details: ATP 20 μM and fructose-6-phosphate 2 μM (Km), 25 nM PFKFB3, 2 h, rt, ADP-Glo luminescence
Procedure: PFKFB3 IC50 Determination Assay
In vitro kinase assay used to determine IC50 values for tested inhibitors is based on a modified ADP-Glo™ system (Promega) and consists of two parts:
1. Kinase reaction—performed in optimized conditions. At this step PFKFB3 phosphorylates its substrate Fructose-6-phosphate using ATP as a source of phosphate to produce Fructose-2,6-bisphosphate and ADP. Reaction is performed at Km values for ATP and substrate using optimized buffer composition and time of the reaction. Human recombinant His-tagged PFKFB3 (PFKFB3 BATCH II SEC) with confirmed activity is produced and purified in-house. 2. Detection of ADP as a product of the reaction using ADP-Glo™ system. This part is conducted by using the commercially available kit ADP-Glo™ Kinase Assay (Promega, cat. No# V9103) according to manufacturer's instruction, modified by 5x dilutions of assay reagents (both ADP-Glo™ Reagent and Kinase Detection Solution).
Test compounds are dissolved in DMSO and then transferred to the V-bottom 96-well plate.
15 μL per well of Mix 1 is transferred to assay wells of 96-well white plate. […] Total reaction volume is 30 μL per well. Samples are tested in duplicates. Final concentration of DMSO in the reaction is 6.7%. Conditions needed for performing PFKFB3 (PFKFB3 BATCH II SEC) in vitro kinase assay are given below:
This protocol is based on Technical Bulletin, ADP-Glo™ Kinase Assay (Promega) and is adapted to 96-well plate containing 30 μL reaction mixture:
30 μL of 5x diluted ADP-Glo™ Reagent is added to each well of 96-well plate containing 30 μL of reaction mixture. The plate is incubated for 90 minutes on a shaker at RT. 60 μL of 5x diluted Kinase Detection Solution is added to each well of 96-well plate containing 60 μL of the solution (ratio of kinase reaction volume to ADP-Glo™ Reagent volume to Kinase Detection Solution volume is maintained at 1:1:2). Plate is incubated for 40 minutes on a shaker at RT, protected from light. Luminescence is measured in the plate reader Synergy 2 (BioTek).
Luminescent readouts for compounds tested in 10 concentrations (routinely from 100 μM to […], […] serial dilutions) in duplicates, as well as for positive control, are first normalized to no-substrate negative control by its subtraction. In the next step, % of normalized positive control is calculated for each data point and plotted against test compound concentration:
% of control percent of positive control normalized to no-substrate negative control Lumcpd luminescence of test compound Lumneg luminescence of no-substrate negative control Lumpos luminescence of positive control
IC50 parameter is determined by the GraphPad Prism 5.0 software [log(inhibitor) vs. response −Variable slope (four parameters)].

T1 sequence (Q16875 whole entry): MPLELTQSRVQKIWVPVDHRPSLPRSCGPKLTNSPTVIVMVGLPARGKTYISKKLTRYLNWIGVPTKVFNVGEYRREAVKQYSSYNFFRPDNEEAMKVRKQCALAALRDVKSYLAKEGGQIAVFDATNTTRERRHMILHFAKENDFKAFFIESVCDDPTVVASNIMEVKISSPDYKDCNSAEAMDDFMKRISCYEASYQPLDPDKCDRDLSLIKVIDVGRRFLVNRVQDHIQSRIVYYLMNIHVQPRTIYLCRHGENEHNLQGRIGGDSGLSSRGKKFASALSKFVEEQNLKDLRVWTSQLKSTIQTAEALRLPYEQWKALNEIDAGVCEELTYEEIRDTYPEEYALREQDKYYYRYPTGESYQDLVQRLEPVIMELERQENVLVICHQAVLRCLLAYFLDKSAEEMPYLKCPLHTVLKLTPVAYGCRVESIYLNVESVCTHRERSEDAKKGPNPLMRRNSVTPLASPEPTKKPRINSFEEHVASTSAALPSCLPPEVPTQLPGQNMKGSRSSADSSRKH

In the case of `CC(=O)N1CCN(c2ccc(S(C)(=O)=O)c(Nc3cc(-c4ccc5ccn(C)c5c4)c4nccnc4c3)c2)CC1` [Example 46, 1-[4-(4-Methanesulfonyl-3-{[8-(1-methyl-1H-indol-6-yl)quinoxalin-6-yl]amino}phenyl)piperazin-1-yl]ethan-1-one], the IC50 is reported as 1000 to 10000 nM.
Work on `Cn1ccc2ccc(-c3cc(Oc4cnccc4C#N)cc4nccnc34)cc21` [Example 47, 3-{[8-(1-Methyl-1H-indol-6-yl)quinoxalin-6-yl]oxy}pyridine-4-carbonitrile] yielded an IC50 of 1 to 1000 nM.
`CS(=O)(=O)c1ccncc1Nc1cc(-c2cccc(-c3cn[nH]n3)c2)c2nccnc2c1` [Example 48, N-(4-Methanesulfonylpyridin-3-yl)-8-[3-(1H-1,2,3-triazol-4-yl)phenyl]quinoxalin-6-amine] was tested, and the IC50 was 10000 to 100000 nM.
`Cc1cccc(-c2cc(Nc3cnccc3S(C)(=O)=O)cc3nccnc23)c1` [Example 51, N-(4-Methanesulfonylpyridin-3-yl)-8-(3-methylphenyl)quinoxalin-6-amine] gave an IC50 of 1000 to 10000 nM.
`CNc1ccc(S(C)(=O)=O)c(Nc2cc(-c3ccc4ccn(C)c4c3)c3nccnc3c2)c1` [Example 57, 4-Methanesulfonyl-N1-methyl-N3-[8-(1-methyl-1H-indol-6-yl)quinoxalin-6-yl]benzene-1,3-diamine] gave an IC50 of 1 to 1000 nM.
Work on `CS(=O)(=O)c1ccncc1Nc1cc(-c2ccc3occ(CCl)c3c2)c2nccnc2c1` [Example 58, 8-[3-(Chloromethyl)-1-benzofuran-5-yl]-N-(4-methanesulfonylpyridin-3-yl)quinoxalin-6-amine] yielded an IC50 of 10000 to 100000 nM.
`Cn1ccc2ccc(-c3cc(Nc4cnccc4S(C)(=O)=O)cc4nccnc34)c(F)c21` [Example 59, 8-(7-Fluoro-1-methyl-1H-indol-6-yl)-N-(4-methanesulfonylpyridin-3-yl)quinoxalin-6-amine] showed an IC50 of 1 to 1000 nM.
For `CS(=O)(=O)c1ccncc1Nc1cc(-c2ccc3nc[nH]c3c2)c2nccnc2c1` [Example 61, 8-(1H-1,3-Benzodiazol-5-yl)-N-(4-methanesulfonylpyridin-3-yl)quinoxalin-6-amine], the IC50 was 10000 to 100000 nM.
`CCc1cccc(-c2cc(Nc3cnccc3S(C)(=O)=O)cc3nccnc23)c1` [Example 65, 8-(3-Ethylphenyl)-N-(4-methanesulfonylpyridin-3-yl)quinoxalin-6-amine] was tested, and the IC50 was 1000 to 10000 nM.
In the case of `Cc1ccc(N)c(-c2cc(Nc3cnccc3S(C)(=O)=O)cc3nccnc23)c1` [Example 66, 8-(2-Amino-5-methylphenyl)-N-(4-methanesulfonylpyridin-3-yl)quinoxalin-6-amine], the IC50 is reported as 1000 to 10000 nM.
Work on `Cc1ccc(O)c(-c2cc(Nc3cnccc3S(C)(=O)=O)cc3nccnc23)c1` [Example 67, 2-{7-[(4-Methanesulfonylpyridin-3-yl)amino]quinoxalin-5-yl}-4-methylphenol] yielded an IC50 of 1000 to 10000 nM.
With `Cn1ccc2ccc(-c3cc(Nc4cnccc4-c4nn[nH]n4)cc4nccnc34)cc21` [Example 68, 8-(1-Methyl-1H-indol-6-yl)-N-[4-(1H-1,2,3,4-tetrazol-5-yl)pyridin-3-yl]quinoxalin-6-amine] the IC50 was 1 to 1000 nM.
`Cn1ccc2ccc(-c3cc(Nc4cnccc4Cl)cc4nccnc34)cc21` [Example 69, N-(4-Chloropyridin-3-yl)-8-(1-methyl-1H-indol-6-yl)quinoxalin-6-amine] was tested, and the IC50 was 1 to 1000 nM.
With `Cc1coc2ccc(-c3cc(Nc4c[n+]([O-])ccc4S(C)(=O)=O)cc4nccnc34)cc12` [Example 72, 4-Methanesulfonyl-3-{[8-(3-methyl-1-benzofuran-5-yl)quinoxalin-6-yl]amino}pyridin-1-ium-1-olate] the IC50 was 1 to 1000 nM.
`Cn1ccc2cc(F)c(-c3cc(Nc4cnccc4S(C)(=O)=O)cc4nccnc34)cc21` [Example 73, 8-(5-Fluoro-1-methyl-1H-indol-6-yl)-N-(4-methanesulfonylpyridin-3-yl)quinoxalin-6-amine] gave an IC50 of 1 to 1000 nM.
With `COc1ccc(C)cc1-c1cc(Nc2cnccc2S(C)(=O)=O)cc2nccnc12` [Example 74, N-(4-Methanesulfonylpyridin-3-yl)-8-(2-methoxy-5-methylphenyl)quinoxalin-6-amine] the IC50 was 1000 to 10000 nM.
Work on `Cc1ccc(-c2cc(Nc3cnccc3S(C)(=O)=O)cc3nccnc23)cc1N` [Example 75, 8-(3-Amino-4-methylphenyl)-N-(4-methanesulfonylpyridin-3-yl)quinoxalin-6-amine] yielded an IC50 of 1 to 1000 nM.
Molecule `Cn1ccc2ccc(-c3cc(Nc4ncccc4S(C)(=O)=O)cc4nccnc34)cc21` [Example 81, N-(3-Methanesulfonylpyridin-2-yl)-8-(1-methyl-1H-indol-6-yl)quinoxalin-6-amine] has an IC50 of 1 to 1000 nM.
`CC(=O)N1CCN(c2ccncc2Nc2cc(-c3ccc4ccn(C)c4c3)c3nccnc3c2)CC1` [Example 82, 1-[4-(3-{[8-(1-Methyl-1H-indol-6-yl)quinoxalin-6-yl]amino}pyridin-4-yl)piperazin-1-yl]ethan-1-one] was tested, and the IC50 was 1 to 1000 nM.
With `Cn1cnc(-c2ccncc2Nc2cc(-c3ccc4ccn(C)c4c3)c3nccnc3c2)c1` [Example 83, N-[4-(1-Methyl-1H-imidazol-4-yl)pyridin-3-yl]-8-(1-methyl-1H-indol-6-yl)quinoxalin-6-amine] the IC50 was 1 to 1000 nM.
Molecule `Cn1ccc2ccc(-c3cc(Nc4cncc5c4OCCN5)cc4nccnc34)cc21` [Example 84, 8-(1-Methyl-1H-indol-6-yl)-N-{2H,3H,4H-pyrido[4,3-b][1,4]oxazin-8-yl}quinoxalin-6-amine] has an IC50 of 1 to 1000 nM.
Molecule `Cn1ccc2ccc(-c3cc(Nc4c[n+]([O-])ccc4C#N)cc4nccnc34)cc21` [Example 90, 4-Cyano-3-{[8-(1-methyl-1H-indol-6-yl)quinoxalin-6-yl]amino}pyridin-1-ium-1-olate] has an IC50 of 1000 to 10000 nM.
With `CN(c1cc(-c2ccc3ccn(C)c3c2)c2nccnc2c1)c1cnccc1C#N` [Example 91, 3-{Methyl[8-(1-methyl-1H-indol-6-yl)quinoxalin-6-yl]amino}pyridine-4-carbonitrile] the IC50 was 1000 to 10000 nM.
`Cn1nccc1-c1ccc(S(C)(=O)=O)c(Nc2cc(-c3ccc4ccn(C)c4c3)c3nccnc3c2)c1` [Example 93, N-[2-Methanesulfonyl-5-(1-methyl-1H-pyrazol-5-yl)phenyl]-8-(1-methyl-1H-indol-6-yl)quinoxalin-6-amine] showed an IC50 of 1000 to 10000 nM.
`Cn1ccc2ccc(-c3cc(Nc4cc(-c5ncco5)ccc4S(C)(=O)=O)cc4nccnc34)cc21` [Example 94, N-[2-Methanesulfonyl-5-(1,3-oxazol-2-yl)phenyl]-8-(1-methyl-1H-indol-6-yl)quinoxalin-6-amine] showed an IC50 of 1 to 1000 nM.
`CN(c1cc(-c2ccc3ccn(C)c3c2)c2nccnc2c1)c1cnccc1C(N)=O` [Example 95, 3-{Methyl[8-(1-methyl-1H-indol-6-yl)quinoxalin-6-yl]amino}pyridine-4-carboxamide] gave an IC50 of 1000 to 10000 nM.
`Cn1ccc2ccc(-c3cc(Nc4cnccc4C(=O)Nc4ccccc4)cc4nccnc34)cc21` [Example 96, 3-{[8-(1-Methyl-1H-indol-6-yl)quinoxalin-6-yl]amino}-N-phenylpyridine-4-carboxamide] gave an IC50 of 1 to 1000 nM.
`Cc1coc2ccc(-c3cc(Nc4cc(N)ccc4S(C)(=O)=O)cc4nccnc34)cc12` [Example 102, 6-Methanesulfonyl-N1-[8-(3-methyl-1-benzofuran-5-yl)quinoxalin-6-yl]benzene-1,3-diamine] was tested, and the IC50 was 1 to 1000 nM.
`Cc1coc2ccc(-c3cc(Nc4cc([N+](=O)[O-])ccc4S(C)(=O)=O)cc4nccnc34)cc12` [Example 103, N-(2-methanesulfonyl-5-nitrophenyl)-8-(3-methyl-1-benzofuran-5-yl)quinoxalin-6-amine] showed an IC50 of 1000 to 10000 nM.
For `COC(=O)c1ccc(S(C)(=O)=O)c(Nc2cc(-c3ccc4ccn(C)c4c3)c3nccnc3c2)c1` [Example 115, Methyl 4-methanesulfonyl-3-{[8-(1-methyl-1H-indol-6-yl)quinoxalin-6-yl]amino}benzoate], the IC50 was 1000 to 10000 nM.
In the case of `Cn1ccc2ccc(-c3cc(Nc4cc(C(N)=O)ccc4S(C)(=O)=O)cc4nccnc34)cc21` [Example 116, 4-Methanesulfonyl-3-{[8-(1-methyl-1H-indol-6-yl)quinoxalin-6-yl]amino}benzamide], the IC50 is reported as 1 to 1000 nM.
`CS(=O)(=O)c1ccncc1Nc1cc(-c2ccc3n[nH]nc3c2)c2nccnc2c1` [Example 118, 8-(1H-1,2,3-Benzotriazol-5-yl)-N-(4-methanesulfonylpyridin-3-yl)quinoxalin-6-amine] was tested, and the IC50 was 1000 to 10000 nM.
